According to US20230348453A1, “HALOGENATED-HETEROARYL AND OTHER HETEROCYCLIC KINASE INHIBITORS, AND USES THEREOF” (iOmx Therapeutics AG, priority 2020, published 2023):
“And” between values parts separate entries of the source, which are not always exact repeats. Equal entries are not always repeated.

Columns and labels:
[1] = tested on: NFKB activity in reporter PANC-1 cells; test: NFKB luciferase reporter activity in PANC-1 cells; assay type: cell-based; conditions: Homo sapiens; PANC-1 reporter cells, +10 ng/ml rHuTNF for 8 h
Protocol: Luciferase activity was normalized to PANC-1 cells treated with rHuTNF without inhibitor (DMSO only). Y-axis=NFKB activity (%). […] Whole cell lysates were analyzed in a Meso Scale Discovery (MSD) assay with anti-HDAC4 capture and anti-pHDAC4 detection antibodies. HDAC4 phosphorylation was normalized to untreated PANC-1 cells (DMSO only). Y-axis=HDAC4 phosphorylation (%). X-axis=Compound concentration (nM).
(§1) FIG. 28: depicts: (A) and (B) effect of compound E9 on NFKB activity. […] Luciferase activity was normalised to cells treated with rHuTNF without inhibitor (DMSO only). Y-axis=NFKB activity (%). X-axis=compound concentration (nM); Bar “A” viability without compound and without TNF; bar “B” viability without compound and with 10 ng/ml TNF; and (C) Effect of compound E9 on HDAC4 phosphorylation. […] Whole cell lysates were analysed in a Meso Scale Discovery (MSD) assay with anti-HDAC4 capture and anti-pHDAC4 detection antibodies. HDAC4 phosphorylation was normalized to untreated PANC-1 cells (DMSO only). Y-axis=HDAC4 phosphorylation (%). X-axis=Compound concentration (nM).

[2] = tested on: NFKB activity in reporter MC38 cells; test: NFKB luciferase reporter activity in MC38 cells; assay type: cell-based, murine; conditions: Mus musculus, MC-38, +10 ng/ml rHuTNF for 8 h
Protocol: as §1

HCK = HCK (Homo sapiens (Human), UniProt P08631); assay type: biochemical; conditions: Kinase Profiler
[3] = Human hepatocyte stability; assay type: in vitro ADME
[4] = Mouse hepatocyte stability; assay type: in vitro ADME; conditions: hepatocytes
[5] = tested on: MC38 colorectal carcinoma tumours; test: MC38 syngeneic mouse model, E9 and anti-PD-1 alone and in combination (Example 10); assay type: in vivo, C57Bl/6N mice; conditions: E9 25 mg/Kg twice daily and/or anti-PD-1 mAb
[6] = tested on: EMT6 breast cancer tumours; test: EMT6 immune-excluded (cold) tumour syngeneic mouse model; assay type: in vivo, BALB/c mice; design: key to Tukey's multiple comparisons test, Significance summary: ns = not significant; conditions: for Tukey's multiple comparisons test, Significance summary: EMT6 model; for tumour growth inhibition (TGI): EMT6
[7] = tested on: SIK3 WT and KO MC38 clones; test: TNF-mediated killing of SIK3 wildtype vs SIK3 knockout MC38 clones (CTG); assay type: cell-based, mouse; conditions: sub-optimal TNF (<10 ng/ml), 72 h
Protocol: The assay was performed as follows: MC38 SIK3 KO clones were generated using CRISPR. Cells were transfected with RNP complexes (Cas9+gRNA) containing gRNAS targeting SIK3 or non-targeting sequences (control). […] Subsequently, single cell clones were generated by limiting dilution. CRISPR-derived mutations in single clones were detected by next-generation sequencing and analysed using CRISPResso. Knockout and wildtype clones were selected and plated overnight. […] Cells treated with different concentrations of inhibitor but without TNF served as no TNF control. Cell viability was measured by CTG assay.

SIK3 [8] = target: T1, SIK3 (Homo sapiens (Human), UniProt Q9Y2K2); conditions: fold of the value of compound C7 (C7 = 1×)
in vivo = conditions: male, CD1, mouse, po, 30 mg/kg
in vitro [9] = conditions: human, microsomes
in vitro [10] = conditions: mouse, microsomes
SIK2 = SIK2 (Homo sapiens (Human), UniProt Q9H0K1); test: SIK2 kinase inhibition (IC50); conditions: read-out: Kinase: IC50 (nM) SIK2
SIK3 [11] = target: T1, SIK3; test: SIK3 kinase inhibition (IC50); conditions: read-out: Kinase: IC50 (nM) SIK3
[12] = Human plasma-protein binding
MDR1 (P-gp) = MDR1 (P-gp) (Homo sapiens (Human), UniProt P08183); test: MDR1-MDCK effective efflux assay; conditions: dog; for efflux ratio: Table 5.1B
[13] = target: MDR1 pump (P-gp), MDCK-MDR1 cells (Homo sapiens (Human), UniProt P08183); test: MDR1-MDCK effective efflux assay; conditions: Table 5.1B
[14] = MDCK wild type permeability/efflux; conditions: dog
[15] = Screening PK in mice after 30 mg/kg po; conditions: for concentration at 6 h: mice, 30 mg/kg po
[16] = Metabolite profile in hepatocytes / in vivo
Description: Metabolites are identified using high-resolution mass spectrometry.

[17] = tested on: HDAC4 phosphorylation in PANC-1 cells; test: HDAC4 phosphorylation (Meso Scale Discovery assay); conditions: 10 ng/mL rHuTNF, 3 h
HCT116 cells = test: TNF-sensitised cell viability assay (CellTiter-Glo); conditions: Homo sapiens, HCT-116, read-out: HCT116 IC50 (at 10 ng/ml rHuTNF)
[18] = tested on: NFKB activity in PANC-1 cells; test: TNF-induced NFKB activity (NFKB-dependent luciferase reporter); conditions: 10 ng/ml rHuTNF, PANC-1 reporter cells
[19] = total plasma concentration at 30 mg/kg p.o dose, fold of C7 (C7 = 1×)

Cc1nc(Nc2ncc(C(=O)Nc3c(CF)csc3Cl)s2)cc(N2CCN(C)CC2)n1 [Compound E9, N-(2-chloro-4-(fluoromethyl)thiophen-3-yl)-2-((2-methyl-6-(4-methylpiperazin-1-yl)pyrimidin-4-yl)amino)thiazole-5-carboxamide]
EC50 [1]: 405 nM | EC50 [2]: 389 nM | HCK residual activity (HCK): less than 1% | Human hepatocyte stability, Half-life [3]: 24 min | half-life ([3]; human, hepatocytes, read-out: Human hepatocyte stability, Half-life): 21 to 30 min | microsomal CLint ([3]; human, hepatocytes, read-out: Human hepatocyte stability, Intrinsic clearance): 58 µL/min/mg | half-life [4]: 65 min | microsomal CLint ([4]; read-out: Mouse hepatocyte stability, Intrinsic clearance): 21 µL/min/mg | TGI [5]: 73% | Tukey's multiple comparisons test, Significance summary ([6]; E9 25 mg/kg bid vs. E9 […] bid): ns | Tukey's multiple comparisons test, Significance summary ([6]; E9 25 mg/kg qd vs. E9 5 mg/kg bid): ns | tumour growth inhibition (TGI) ([6]; 5 mg/kg BID): 24% and 25% | tumour growth inhibition (TGI) ([6]; 25 mg/kg BID): 37% | tumour growth inhibition (TGI) ([6]; 25 mg/kg QD): 9% | Tukey's multiple comparisons test, Significance summary ([6]; Vehicle vs. E9 25 mg/kg qd): ns | TNF-mediated killing in SIK3 WT vs KO MC38 clones [7]: induced TNF-mediated killing only in SIK3 WT clones | SIK3 IC50 (nM), relative to C7 (SIK3 [8]): 0.3× | AUC(0-inf) (in vivo): 9.63 µM·h | AUC(0-t) (in vivo): 9.58 µM·h | Cmax (in vivo): 2690 ng/mL | MRT last (in vivo): 203 min | Tmax (in vivo): 15 min | half-life (in vivo): 166 min | half-life (in vitro [9]): 11 min | microsomal CLint (in vitro [9]): 131 µL/min/mg | half-life (in vitro [10]): 9 min | microsomal CLint (in vitro [10]): 158 µL/min/mg | IC50 (SIK2): < 10 nM | IC50 (SIK3 [11]): < 20 nM | Human plasma-protein binding, Percentage unbound (%) ([12]; Table 5.1A): 1% | recovery at 4 h ([12]; human, plasma): 92% | Papp (MDR1 (P-gp); MDCK-MDR1): 5 ×10⁻⁶ cm/s | efflux ratio (MDR1 (P-gp); MDCK-MDR1, MDCK-MDR1 cells, Mean Efflux Ratio (MDR1)): 20 to 30 | efflux ratio (MDR1 (P-gp); MDCK-MDR1, P-gP driven efflux ratio (MDR1/wt)): 27 | MDCK-MDR1 cells, Mean Efflux Ratio (MDR1) [13]: 26 | Papp [14]: 10 ×10⁻⁶ cm/s | efflux ratio [14]: 1 | fold improvement of free serum concentration over C7 ([15]; mouse, in vivo): 2 fold | fold improvement of total serum concentration over C7 ([15]; mouse, in vivo): 4.5 fold | Cmax at 2 h ([15]; mouse, plasma, po, 30 mg/kg): 426 ng/mL | concentration at 6 h ([15]; mouse, plasma, po, 30 mg/kg, Free plasma concentration after 6 h (nM)): 7.7 nM | concentration at 6 h ([15]; mouse, plasma, po, 30 mg/kg, Plasma concentration after 6 h (nM)): 309 nM | AUC0-last (nM*h), relative to C7 [15, 19]: 8.2× | C max (ng/ml), relative to C7 [15, 19]: 5.6× | MRT0-last (h), relative to C7 [15, 19]: 1.2× | t1/2 (h), relative to C7 [15, 19]: 2× | quinone-imine reactive metabolite [16]: not observed | Inhibition of HDAC4 phosphorylation [17]: ++ | IC50 (HCT116 cells): < 100 nM | Inhibition of NFKB activity (PANC-1) [18]: ++
